Measurements reported in the CheMixHub viscosity set.
Several values for one entry are separate records, joined by “and”; a condition that tells them apart may be missing. Identical values can stand only once.

Legend:
[1] = xn = mol fraction of the nth substance listed

C=CC(=O)OCC
viscosity
Conditions | 293.15 K | 298.15 K | 303.15 K | 308.15 K | 313.15 K | 318.15 K
100 kPa | 0.5685 mPa·s | 0.533 mPa·s | 0.5 mPa·s | 0.4643 mPa·s | 0.423 mPa·s | 0.3813 mPa·s
101 kPa | 0.5685 mPa·s and 0.573 mPa·s | – | 0.5 mPa·s and 0.504 mPa·s and 0.502 mPa·s | – | 0.423 mPa·s and 0.443 mPa·s and 0.42 mPa·s | 0.3813 mPa·s and 0.421 mPa·s

CC1=CCC(=C(C)C)CC1
101 kPa
Conditions | viscosity [mPa·s]
303.15 K | 1.007
308.15 K | 0.945
313.15 K | 0.884

CCCC(C)C
101.33 kPa
Conditions | viscosity [mPa·s]
298 K | 0.2753
298.15 K | 0.2767

CCCCCC(=O)O.CCCCCC(=O)[O-].CC[NH+](CC)CCO
101 kPa
Conditions | viscosity [mPa·s]
293.15 K | 76.9
298.15 K | 60.01
303.15 K | 47.52
308.15 K | 38.14
313.15 K | 31
318.15 K | 25.48
323.15 K | 21.16

CCCCCCCCCCCCCCCCCCCCCC
Conditions | viscosity [mPa·s]
323.1 K, 101.3 kPa | 4.128

CCCCn1cc[n+](C)c1.F[P-](F)(F)(F)(F)F
viscosity
Conditions | 293.15 K | 293.2 K | 298.15 K | 303.15 K | 308.15 K | 308.19 K | 313.15 K | 318.15 K | 323.15 K
100 kPa | 336.9 mPa·s | 342.7 mPa·s | 256.7 mPa·s | 197.6 mPa·s | 148.3 mPa·s | 144 mPa·s | 112 mPa·s | 87.66 mPa·s | 70.97 mPa·s
101 kPa | 378 mPa·s and 249.5 mPa·s and 265.2 mPa·s | – | – | 187.6 mPa·s and 136 mPa·s and 165.7 mPa·s | 101.5 mPa·s and 133.9 mPa·s | – | 129.7 mPa·s and 79.01 mPa·s and 110.8 mPa·s | 93.5 mPa·s and 62.4 mPa·s and 95.75 mPa·s | 88.51 mPa·s and 47.7 mPa·s

CCO
Conditions | viscosity
293.61 K, 100 kPa | 1.18 mPa·s
293.91 K, 100 kPa | 1.17 mPa·s
294.21 K, 100 kPa | 1.17 mPa·s
294.52 K, 100 kPa | 1.16 mPa·s
294.82 K, 100 kPa | 1.16 mPa·s
295.12 K, 100 kPa | 1.15 mPa·s
295.42 K, 100 kPa | 1.15 mPa·s
295.73 K, 100 kPa | 1.14 mPa·s
296.03 K, 100 kPa | 1.14 mPa·s
296.33 K, 100 kPa | 1.13 mPa·s
296.64 K, 100 kPa | 1.13 mPa·s
296.94 K, 100 kPa | 1.12 mPa·s
297.24 K, 100 kPa | 1.12 mPa·s
298.15 K, 101 kPa | 1.03 mPa·s
299.06 K, 100 kPa | 1.08 mPa·s
299.36 K, 100 kPa | 1.08 mPa·s
299.67 K, 100 kPa | 1.07 mPa·s
299.97 K, 100 kPa | 1.07 mPa·s
300.27 K, 100 kPa | 1.06 mPa·s
300.58 K, 100 kPa | 1.06 mPa·s
300.88 K, 100 kPa | 1.05 mPa·s
301.18 K, 100 kPa | 1.05 mPa·s
301.48 K, 100 kPa | 1.04 mPa·s
301.79 K, 100 kPa | 1.04 mPa·s
302.09 K, 100 kPa | 1.03 mPa·s
302.39 K, 100 kPa | 1.03 mPa·s
303.15 K, 100 kPa | 0.989 mPa·s
303.15 K, 101.33 kPa | 0.988 mPa·s
303.61 K, 100 kPa | 1.01 mPa·s
303.91 K, 100 kPa | 1 mPa·s
304.21 K, 100 kPa | 1 mPa·s
304.52 K, 100 kPa | 0.99 mPa·s
304.82 K, 100 kPa | 0.99 mPa·s
305.12 K, 100 kPa | 0.98 mPa·s
305.42 K, 100 kPa | 0.98 mPa·s
305.73 K, 100 kPa | 0.97 mPa·s
306.03 K, 100 kPa | 0.97 mPa·s
306.33 K, 100 kPa | 0.96 mPa·s
306.64 K, 100 kPa | 0.96 mPa·s
306.94 K, 100 kPa | 0.95 mPa·s
307.24 K, 100 kPa | 0.95 mPa·s
307.55 K, 100 kPa | 0.94 mPa·s
307.85 K, 100 kPa | 0.94 mPa·s
308.15 K, 100 kPa | 0.93 mPa·s
308.45 K, 100 kPa | 0.93 mPa·s
308.76 K, 100 kPa | 0.92 mPa·s
309.06 K, 100 kPa | 0.92 mPa·s
309.36 K, 100 kPa | 0.91 mPa·s
309.67 K, 100 kPa | 0.91 mPa·s
309.97 K, 100 kPa | 0.9 mPa·s
310.27 K, 100 kPa | 0.9 mPa·s
310.58 K, 100 kPa | 0.89 mPa·s
310.88 K, 100 kPa | 0.89 mPa·s
311.18 K, 100 kPa | 0.88 mPa·s
311.48 K, 100 kPa | 0.88 mPa·s
313.15 K, 100 kPa | 0.8179 mPa·s and 0.82 mPa·s
313.15 K, 101.32 kPa | 0.835 mPa·s
318.15 K, 100 kPa | 0.75 mPa·s
323 K, 101.33 kPa | 0.673 mPa·s and 0.673 mPa·s
323.15 K, 101.32 kPa | 0.702 mPa·s

CCOP(=O)(OCC)OCC
Conditions | viscosity [mPa·s]
298.15 K, 101.3 kPa | 1.503

CCc1ccccc1
Conditions | viscosity
298 K, 101 kPa | 0.6295 mPa·s
298.15 K, 101 kPa | 0.6076 mPa·s and 0.631 mPa·s
298.15 K, 101.3 kPa | 0.657 mPa·s
298.15 K, 101.33 kPa | 0.625 mPa·s
303 K, 101.33 kPa | 0.574 mPa·s
303.15 K, 100 kPa | 0.592 mPa·s
303.15 K, 101 kPa | 0.5916 mPa·s
303.15 K, 101.33 kPa | 0.584 mPa·s
308.15 K, 100 kPa | 0.56 mPa·s
308.15 K, 101.33 kPa | 0.5797 mPa·s and 0.56 mPa·s
313 K, 101.33 kPa | 0.513 mPa·s
313.15 K, 100 kPa | 0.53 mPa·s
313.15 K, 101.33 kPa | 0.531 mPa·s
318.15 K, 100 kPa | 0.503 mPa·s
318.15 K, 101.33 kPa | 0.502 mPa·s and 0.5038 mPa·s
323 K, 101.33 kPa | 0.464 mPa·s
323.15 K, 100 kPa | 0.478 mPa·s
323.15 K, 101.33 kPa | 0.474 mPa·s

COC(C)(C)C
viscosity
Conditions | 293.15 K | 298.15 K | 303.15 K | 308.15 K | 313.15 K | 318.15 K | 323.15 K
100 kPa | 0.345 mPa·s | 0.32 mPa·s | 0.297 mPa·s | 0.275 mPa·s | 0.252 mPa·s | 0.231 mPa·s | 0.206 mPa·s
101 kPa | 0.387 mPa·s and 0.371 mPa·s | 0.374 mPa·s and 0.3558 mPa·s and 0.348 mPa·s | – | 0.341 mPa·s and 0.3245 mPa·s | 0.321 mPa·s | 0.297 mPa·s | 0.276 mPa·s
101.33 kPa | 0.3861 mPa·s and 0.3861 mPa·s | 0.3687 mPa·s and 0.3687 mPa·s and 0.3353 mPa·s | 0.3163 mPa·s | – | 0.2876 mPa·s | – | –

COCCOCCOCCOCCOC
viscosity
Conditions | 293.15 K | 298 K | 298.15 K | 303.15 K | 308.15 K | 318.15 K | 323.15 K
101 kPa | 3.795 mPa·s | 3.295 mPa·s | – | 2.955 mPa·s | 2.646 mPa·s and 2.643 mPa·s and 2.524 mPa·s | 2.168 mPa·s and 2.11 mPa·s | 1.975 mPa·s
101.33 kPa | – | – | 3.394 mPa·s | – | – | – | –

Clc1ccccc1
Conditions | viscosity
293.15 K, 101 kPa | 0.768 mPa·s and 0.793 mPa·s and 0.8062 mPa·s
293.15 K, 101.33 kPa | 0.806 mPa·s and 0.8522 mPa·s
293.45 K, 101.33 kPa | 0.8265 mPa·s
298.15 K, 101.3 kPa | 0.773 mPa·s
298.15 K, 101.33 kPa | 0.8131 mPa·s and 0.755 mPa·s
299 K, 101 kPa | 1.182 mPa·s
303.15 K, 101.3 kPa | 0.725 mPa·s
303.55 K, 101.33 kPa | 0.743 mPa·s
308.15 K, 101.3 kPa | 0.666 mPa·s and 0.683 mPa·s
312.75 K, 101.33 kPa | 0.6695 mPa·s
313.15 K, 101.33 kPa | 0.6469 mPa·s and 0.639 mPa·s
314.25 K, 101.33 kPa | 0.643 mPa·s
318.15 K, 101 kPa | 0.5629 mPa·s and 0.5924 mPa·s and 0.601 mPa·s
318.15 K, 101.3 kPa | 0.615 mPa·s
318.15 K, 101.33 kPa | 0.607 mPa·s
322.35 K, 101.33 kPa | 0.6069 mPa·s
323.15 K, 101 kPa | 0.5724 mPa·s and 0.5701 mPa·s and 0.566 mPa·s
323.15 K, 101.33 kPa | 0.5724 mPa·s

N#CCCCCC#N
Conditions | viscosity [mPa·s]
303.15 K, 101.33 kPa | 4.905

OC1CCCC1
100 kPa
Conditions | viscosity
293.15 K | 12.9 mPa·s
298.15 K | 10.41 mPa·s
303.15 K | 8.2 mPa·s and 8.088 mPa·s
308.15 K | 6.85 mPa·s and 6.528 mPa·s
318.15 K | 4.742 mPa·s
318.16 K | 4.87 mPa·s

OCCCCCO
101 kPa
Conditions | viscosity [mPa·s]
313.15 K | 45.63
318.15 K | 36.87
323.15 K | 29.8

C=CC(=O)OCC + c1ccccc1
viscosity [mPa·s], [1], 101 kPa
Conditions | x2 = 0.1283 | x2 = 0.2137 | x2 = 0.3255 | x2 = 0.4115 | x2 = 0.5361 | x2 = 0.6109 | x2 = 0.7033 | x2 = 0.8074 | x2 = 0.9025
298.15 K | 0.531 | 0.533 | 0.537 | 0.541 | 0.55 | 0.558 | 0.568 | 0.579 | 0.591
303.15 K | 0.499 | 0.5 | 0.501 | 0.502 | 0.509 | 0.516 | 0.524 | 0.535 | 0.548
308.15 K | 0.461 | 0.46 | 0.461 | 0.462 | 0.466 | 0.472 | 0.481 | 0.495 | 0.508
313.15 K | 0.412 | 0.41 | 0.411 | 0.412 | 0.415 | 0.42 | 0.431 | 0.444 | 0.458

Clc1cccc2ccccc12 + c1ccccc1
viscosity [mPa·s], [1], 101.33 kPa
Conditions | x1 = 0.0989 | x1 = 0.2022 | x1 = 0.3275 | x1 = 0.3981 | x1 = 0.5035 | x1 = 0.5982 | x1 = 0.7022 | x1 = 0.7973 | x1 = 0.8976
298.15 K | 0.655 | 0.792 | 0.96 | 1.078 | 1.294 | 1.475 | 1.731 | 2.022 | 2.38
303.15 K | 0.609 | 0.727 | 0.903 | 0.994 | 1.188 | 1.349 | 1.586 | 1.833 | 2.126
308.15 K | 0.571 | 0.679 | 0.843 | 0.922 | 1.098 | 1.242 | 1.452 | 1.669 | 1.928
